# Measured values reported in US20040039054A1, “Use of L-carnitine and derivatives for reducing ceramide levels and potentiating antiretroviral drugs” (SIGMA-TAU INDUSTRIE, priority 1995, published 2004).
# Assays:
# ceramide = assay: Ceramide at muscle cell level in muscle biopsy homogenates of AIDS subjects; type: in vivo, human; conditions: muscle biopsy before treatment (baseline), individual patients and group mean
# Protocol: (§1) Four subjects with AIDS were treated with 600 mg of AZT daily by mouth. Of these, two were also treated with L-carnitine 3 g daily. The total duration of the treatment was 6 months. Muscle biopsies were performed before and after treatment. The ceramide present at muscle cell level was determined before and after treatment, after sonicating and homogenizing the biopsy material. The viral load was determined in the same muscle homogenates, as described in Example 1.
# HIV = assay: Viral load in muscle biopsy homogenates of AIDS subjects; type: in vivo; conditions: individual patients and group mean
# Protocol: The determinations were carried out prior to the combined treatment, while patients were taking only AZT (T0), after 4 weeks of therapy with the L-carnitine-AZT combination (T1) and one month after discontinuation of treatment with L-carnitine (T2), leaving the patients on AZT alone. TCD4 lymphocytes were measured by flow cytometry by means of a specific monoclonal antibody (number of lymphocytes per mm^3) and the apoptotic lymphocytes by flow cytometry after staining with propydium iodide, quantifying the cells with hypodiploid nuclei (number of lymphocytes per 50,000 cells). The viral load (number of viral particles per ml of serum) was determined by quantifying HVI-1 RNA by means of a polymerase chain reaction (Amplicor HIV detection system by Roche). The Wilcoxon test was used for the statistical processing.
# as §1
# lymphocyte ceramide = assay: Lymphocyte ceramide by DAG (diacylglycerol) kinase assay in AIDS patients; type: in vivo, human
smiles,measurement,setting,value
"Cc1cn([C@H]2C[C@H](N=[N+]=[N-])[C@@H](CO)O2)c(=O)[nH]c1=O [AZT, zidovudine]",Pre-treatment ceramide (pmoL/mg protein),ceramide,92 pmoL/mg protein
same,Post-treatment HIV (viral particles/mg protein),"HIV; muscle homogenate after 6 months, AZT 600 mg daily by mouth, with or without L-carnitine 3 g daily","4,950 viral particles/mg protein"
same,Pre-treatment HIV (viral particles/mg protein),HIV; muscle homogenate before treatment (baseline),"4,850 viral particles/mg protein"
same,"levels of lymphocyte ceramide, T0","lymphocyte ceramide; T0: prior to combination treatment, patients on AZT only, 13 patients",48±8 pmol/10^6 lymphocytes
same,"levels of lymphocyte ceramide, T2","lymphocyte ceramide; T2: one month after discontinuation of L-carnitine, patients on AZT alone",38±9 pmol/10^6 lymphocytes
